In assay [1] the target is T1, RrMbnBC (Rugamonas rubra, UniProt A0A1I4IFH0+A0A1I4IFL0).
T1 sequence (A0A1I4IFL0 1-277): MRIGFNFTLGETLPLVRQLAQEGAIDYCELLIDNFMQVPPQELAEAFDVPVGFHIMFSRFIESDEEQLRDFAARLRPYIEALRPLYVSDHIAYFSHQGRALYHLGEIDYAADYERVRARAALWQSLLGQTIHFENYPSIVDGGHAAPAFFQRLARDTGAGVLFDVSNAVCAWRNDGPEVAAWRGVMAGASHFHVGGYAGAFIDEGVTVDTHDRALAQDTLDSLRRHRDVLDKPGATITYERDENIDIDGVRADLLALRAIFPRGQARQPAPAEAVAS
T1 sequence (A0A1I4IFH0 1-199): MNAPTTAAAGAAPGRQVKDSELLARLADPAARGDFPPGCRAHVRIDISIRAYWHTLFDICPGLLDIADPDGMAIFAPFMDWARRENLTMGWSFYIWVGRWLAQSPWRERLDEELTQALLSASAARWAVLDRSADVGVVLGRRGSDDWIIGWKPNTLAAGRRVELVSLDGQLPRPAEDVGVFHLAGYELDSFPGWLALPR
As to the kind of experiment: Limited proteolysis assay of RrMbnBC with MbnA. On the set-up: species or system Rugamonas rubra ATCC 43154. Particulars: ~20 µM RrMbnBC incubated with MbnA 1 h at 4 °C, trypsin 30 min on ice, SDS-PAGE. The protocol:
The limited proteolysis assay allows the characterization of the increase in stability of wild-type proteins upon binding to their substrates. The VcMbnBC and RrMbnBC proteins used in this assay were all adjusted to an equal molar concentration of about 20 µM. The RrMbnBC or VcMbnBC complex, by itself or after incubation with the corresponding MbnA peptide for 1 h at 4 °C, was digested by trypsin. After 30 min of incubation on ice, the proteolyzed products were analyzed by SDS-PAGE and visualized by Coomassie blue staining.

The target of assay [2] is T1, RrMbnBC. Briefly: UV-Vis activity assay, MbnA modification by RrMbnBC. The class given is biochemical, Rugamonas rubra ATCC 43154. To be noted: co-expressed in Escherichia coli. The protocol:
Standard UV-Vis spectra detection was performed on a UV-Vis and Vis instrument (Ultrospec 2100 pro, Biochrom, UK) at room temperature. MtMbnBC and RrMbnBC proteins were adjusted to 5 mg/mL (nearly 100 μM), and VcMbnBC was adjusted to a concentration of 1 mg/mL (nearly 20 μM). The corresponding substrates, VcMbnA, RrMbnA, MtMbnA, and their variants (Supplementary information, Table S5), were dissolved in distilled water and diluted to a working concentration of 5 mM with buffer B. The reaction was initiated when 100 μL MbnBC proteins and 5 μL MbnA peptides were applied to the reaction system, and the reaction was diluted up to 1 mL with buffer B. The mixture was then added into a quartz cuvette and recorded at 20-s intervals for a total of 50 reads at room temperature. For assays using anaerobically prepared MbnBC proteins, the measurements were immediately recorded by adding the anaerobically prepared MbnBC into the reaction system, with peptides pre-mixed in the quartz cuvette. The buffer B used in the assay was O2-saturated at room temperature.
For the stopped-flow UV-Vis spectroscopic analysis, 10 μM MtMbnBC or RrMbnBC or 2 μM VcMbnBC was incubated with 250 μM MbnA peptides at room temperature for 1 h, followed by detection on a UV-Vis and Vis instrument (Nanodrop One, Thermo Scientific, MA). Data were processed by Graphpad Prism version 8.3.

A further assay deals with VcMbnBC. As to the kind of experiment: ITC measurement of VcMbnA and variants binding affinity to VcMbnBC. Set-up: species or system Vibrio caribbenthicus BAA-2122.
The next assay has as its target T2, VcMbnBC complex (Vibrio caribbenthicus BAA-2122).
T2 chain 1: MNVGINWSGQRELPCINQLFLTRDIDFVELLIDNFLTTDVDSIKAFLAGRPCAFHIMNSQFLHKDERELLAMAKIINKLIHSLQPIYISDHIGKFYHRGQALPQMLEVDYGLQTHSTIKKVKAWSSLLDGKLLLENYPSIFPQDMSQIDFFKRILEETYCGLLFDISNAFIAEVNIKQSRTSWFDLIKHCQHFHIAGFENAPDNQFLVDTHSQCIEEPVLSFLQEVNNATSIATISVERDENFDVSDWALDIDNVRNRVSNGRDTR
T2 chain 2: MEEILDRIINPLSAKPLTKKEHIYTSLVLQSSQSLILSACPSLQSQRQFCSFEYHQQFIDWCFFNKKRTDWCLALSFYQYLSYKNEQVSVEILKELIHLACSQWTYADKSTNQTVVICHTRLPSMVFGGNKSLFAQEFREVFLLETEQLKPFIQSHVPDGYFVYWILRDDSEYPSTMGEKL
Briefly: ITC. For orientation: ITC needs no label: the signal is the heat of the interaction.

For assay [3], the target named is T3, RrMbnBC complex (Rugamonas rubra ATCC 43154).
T3 chain 1: T1 sequence (A0A1I4IFL0 1-277)
T3 chain 2: T1 sequence (A0A1I4IFH0 1-199)
As to the kind of experiment: ITC.

The target in assay [4] is T3, RrMbnBC complex. As to the kind of experiment: ITC.

Where two headings read alike, the source gives them in different places. Ends that are not written are not given here. Peptide text beside a SMILES is read from it.

For the molecule `CC[C@H](C)[C@H](NC(=O)[C@H](CCC(=O)O)NC(=O)[C@@H](NC(=O)[C@H](CCCCN)NC(=O)[C@H](CCCCN)NC(=O)[C@@H](NC(=O)[C@@H](NC(=O)[C@@H](NC(=O)[C@@H](NC(=O)[C@H](CCCCN)NC(=O)[C@@H](N)CCSC)[C@@H](C)CC)C(C)C)[C@@H](C)CC)C(C)C)C(C)C)C(=O)N[C@@H](CCC(N)=O)C(=O)N[C@H](C(=O)N[C@@H](C)C(=O)NCC(=O)N[C@@H](CCCNC(=N)N)C(=O)N[C@H](C(=O)NCC(=O)N[C@@H](CCSC)C(=O)N[C@@H](CCCNC(=N)N)C(=O)N[C@@H](CS)C(=O)N[C@@H](C)C(=O)N[C@@H](CO)C(=O)N[C@@H](CO)C(=O)N[C@@H](CS)C(=O)NCC(=O)N[C@@H](C)C(=O)N[C@@H](CCCCN)C(=O)N[C@@H](CO)C(=O)O)[C@@H](C)O)C(C)C` [RrMbnA] (H-MKIVIVKKVEIQVAGRTGMRCASSCGAKS-OH), the “effect on RrMbnBC stability in limited proteolysis” value on RrMbnBC [1] was “enhance RrMbnBC stability”. For the same molecule, the “modification by co-expressed RrMbnBC, UV-Vis absorption at ~335 nm” value at RrMbnBC [2] is “could be modified”.

For MKNDKKVVVKVKDKEM [LP], the “interaction with VcMbnBC (binding assays, in words)” value in the assay with VcMbnBC (ITC binding assays of VcMbnBC with VcMbnA variants) is on record as “weak interaction”. The Kd on VcMbnBC (ITC, 16 °C, 2 mM peptide, 20 injections of 2.5 μL into 190 μL VcMbnBC 1 mg/mL in 25 mM HEPES pH 8.0, 100 mM NaCl, one-site binding, read-out: Kd, VcMbnA or variant/VcMbnBC) was 63.8 ± 10.5 µM.

B1: VcMbnA peptide (peptide)
peptide: MKNDKKVVVKVKDKEMTCGAFNK
In the case of B1, the Kd with VcMbnBC complex was 3 µM; in the assay with RrMbnBC complex [3] it was 4.14 µM.

B2: RrMbnA peptide (peptide)
peptide: MKIVIVKKVEIQVAGRTGMRCASSCGAKS
The molecule B2 came in with a Kd with RrMbnBC complex [4] of 2.7 µM.

Values taken from paper PMC8888699, “Crystal structure and catalytic mechanism of the MbnBC holoenzyme required for methanobactin biosynthesis” (Cell Research, 2022).
